Assay results published in patent US8680282B2, “Cyclic inhibitors of carnitine palmitoyltransferase and treating cancer” (University Health Network, priority 2007, dated 2014).

Tests used:
Assay in all cases: Cancer cell growth inhibition, SRB assay
Assay type in all cases: cell-based, human
H358 = system: H358; set-up: Percentage of Growth Inhibition: unit not given here; conditions: SRB at Day 6; for GI50: Homo sapiens, NCI-H358, 144 h, H358 (Lung), triplicate; for Percentage of Growth Inhibition: H358, at 10 μM, NE = no activity at 10 micromolar
Experimental: (§1) Human cancer cells (MCF-7, H358, H460, HCT116 p53^+/+, HCT116 p53^−/−, A172, PC-3, DU-145 and SW626) were maintained in DMEM medium containing 10% Fetal Bovine Serum (FBS) (Invitrogen, Burlington, ON, Canada) and normal cells HMEC, 184A1, NHBE and PrEC were cultured in MEGM, MEGM plus transferring and cholera toxin, BEGM and PrEGM supplemented with various growth factors (Cambrex, Charles city, Iowa, USA), respectively.
(§2) Compounds of Examples S1 to S30, and 4-(carboxymethyl)-4-(6-(3-hexyloxy)phenoxy)hexanoamido)-1,1-dimethylpiperidinium 2,2,2-trifluoroactate (“Compound A”) were tested in this example. Each of the tested compounds was dissolved in DMSO and further diluted in cell culture medium for the experiments performed. Cells were seeded into 96-well plates with 1,500-5,000 cells/well according to cell growth rate. After 24 h, DMEM medium containing 10% FBS were changed to DMEM containing 3% FBS for cancer cells. The compound was added into the cell culture at the indicated concentrations, and the final concentration of DMSO was adjusted to a final concentration of 0.1%. Cell viability was assessed by Sulforhodamine B (SRB) assay at Day 6.
(§3) Sulforhodamine B (SRB) (Sigma, Oakville, ON, Canada) is a water-soluble dye that binds to the basic amino acids of the cellular proteins. Thus, colorimetric measurement of the bound dye provides an estimate of the total protein mass that is related to the cell number. The cells were fixed in situ by gently aspirating off the culture media and adding 50 ul of cold 10% Tri-chloroacetic Acid (TCA) per well and incubated at 4° C. for 30-60 min. The plates were washed five times with water and allowed to air dry for 5 min. 50 ul of 0.4% (w/v) SRB dissolved in 1% (v/v) acetic acid were added into each well, plates were then incubated at RT for 30 min for staining, washed four times with 1% acetic acid to remove any unbound dye and then allowed to air dry for 5 min. Stain was solubilized with 100 ul of 10 mM Tris pH 10.5 per well. Absorbance was read at 570 nm on a spectrophotometer. GI50 (compound concentration required for 50% of growth inhibition) was calculated using GraphPad Prism 4.0 software (GraphPad Software, Inc., San Diego, Calif., USA). Growth inhibition (%) was determined as percentage of cells remaining compared to the DMSO-treated cells as control.

A549 = system: A549; set-up: Percentage of Growth Inhibition: scale not given here; conditions: SRB at Day 6; for GI50: Homo sapiens, 144 h, A549 (Lung), triplicate; for Percentage of Growth Inhibition: A549, at 10 μM, NE = no activity at 10 micromolar
A172 = conditions: SRB at Day 6; for GI50: Homo sapiens, A 172, 144 h, A172 (Brain), triplicate; for Percentage of Growth Inhibition: A172, at 10 μM, NE = no activity at 10 micromolar
Experimental: as §1, §2, §3

PC-3 = conditions: SRB at Day 6; for GI50: Homo sapiens, 144 h, PC-3 (Prostate), triplicate; for Percentage of Growth Inhibition: PC-3, at 10 μM, NE = no activity at 10 micromolar
Experimental: as §1, §2, §3

COLO-205 = conditions: SRB at Day 6; for GI50: Homo sapiens, 144 h, COLO-205 (Colon), triplicate; for Percentage of Growth Inhibition: COLO-205, at 10 μM, NE = no activity at 10 micromolar
SW620 = system: SW620; set-up: Percentage of Growth Inhibition: scale not given here; conditions: SRB at Day 6; for GI50: Homo sapiens, SW-620, 144 h, SW620 (Colon), triplicate; for Percentage of Growth Inhibition: SW620, at 10 μM, NE = no activity at 10 micromolar
MCF-7 = system: MCF-7; set-up: Percentage of Growth Inhibition: scale not given here; conditions: SRB at Day 6; for GI50: Homo sapiens, MCF7, 144 h, MCF-7 (Breast), triplicate; for Percentage of Growth Inhibition: MCF-7, at 10 μM, NE = no activity at 10 micromolar
Experimental: as §1, §2, §3

SW626 = system: SW626; set-up: Percentage of Growth Inhibition: scale not given here; conditions: SRB at Day 6; for GI50: Homo sapiens, 144 h, SW626 (Ovarian), triplicate; for Percentage of Growth Inhibition: SW626, at 10 μM, NE = no activity at 10 micromolar
Experimental: as §1, §2, §3

Row | Compound | GI50 (H358) [µM] | GI50 (A549) [µM] | GI50 (A172) [µM] | GI50 (PC-3) [µM] | GI50 (COLO-205) [µM] | GI50 (SW620) [µM] | GI50 (MCF-7) [µM] | GI50 (SW626) [µM] | Percentage of Growth Inhibition (H358) | Percentage of Growth Inhibition (A172) [%] | Percentage of Growth Inhibition (COLO-205) [%] | Percentage of Growth Inhibition (SW620) [%] | Percentage of Growth Inhibition (MCF-7) [%] | Percentage of Growth Inhibition (SW626) [%] | Percentage of Growth Inhibition (PC-3) [%] | Percentage of Growth Inhibition (A549) [%]
1 | CCCCCCCCc1ccc(NC(=O)NC2(CC(=O)O)CC[N+](C)(C)CC2)cc1 [Example S2, 4-(Carboxymethyl)-1,1-dimethyl-4-(3-(4-octylphenyl)ureido)piperidinium 2,2,2-trifluoroacetate] | 3.1 | 99 | 1.8 | 8.2 | 1.3 | 2 | 10 | 2.5 |  |  |  |  |  |  |  | 
2 | C[N+]1(C)CCC(CC(=O)O)(NC(=O)c2ccc(CCc3ccccc3)o2)CC1 [Example S5, 4-(Carboxymethyl)-1,1-dimethyl-4-(5-phenethylfuran-2-carboxamido)-piperidinium 2,2,2-trifluoroacetate] |  |  |  |  |  |  |  |  | 0.08927 | 0.01342 | 0.1219 | 0.05572 | 0.02312 | 0.03032 |  | 
3 | CCCCCCCCCCc1ccc(C(=O)NC2(CC(=O)O)CCN(C)C2)cc1 (stereo not drawn) [Example S21, 3-(carboxymethyl)-3-(4-decylbenzamido)-1-methylpyrrolidinium 2,2,2-trifluoroacetate] |  |  |  |  |  |  |  |  | 0.6802 | 0.1417 | 0.02151 | 0.07327 | 0.01838 | 0.154 | 0.1562 | 
4 | CCCCCCCCc1ccc(NS(=O)(=O)NC2(CC(=O)O)CC[N+](C)(C)CC2)cc1 [Example S8, 4-(carboxymethyl)-1,1-dimethyl-4-(N-(4-octylphenyl)sulfamoylamino)piperidinium 2,2,2-trifluoroacetate] | 0.9 | 10 | 2.2 | 1.7 | 5.3 | 8.4 | 2 | 15 |  |  |  |  |  |  |  | 
5 | CCCCCc1ccc(S(=O)(=O)NC2(CC(=O)O)CN(C)C2)cc1 [Example S27, 3-(carboxymethyl)-1-methyl-3-(4-pentylphenylsulfonamido)azetidinium 2,2,2-trifluoroacetate] |  |  |  |  |  |  |  |  | 0.07312 |  |  |  | 0.05347 |  | 0.0865 | 0.06854
6 | CCCCCCCCc1ccc(NC(=O)NC2(CC(=O)O)CCC[NH+](C)C2)cc1 (stereo not drawn) [Example S9, 3-(Carboxymethyl)-1-methyl-3-(3-(4-octylphenyl)ureido)piperidinium 2,2,2-trifluoroacetate] |  |  |  |  |  |  |  |  |  |  | 0.2852 | 0.04904 | 0.02731 | 0.02424 | 0.2585 | 0.451
7 | CCCCCc1ccc(S(=O)(=O)NC2(CC(=O)O)CC[N+](C)(C)CC2)cc1 [Example S4, 4-(Carboxymethyl)-1,1-dimethyl-4-(4-pentylphenylsulfonamido)piperidinium 2,2,2-trifluoroacetate] |  |  | > 50 | > 50 | > 50 | > 50 |  |  |  |  |  |  |  |  |  | 
8 | CCCCCCCCCCc1ccc(C(=O)NC2(CC(=O)O)CC[N+](C)(C)C2)cc1 (stereo not drawn) [Example S22, 3-(Carboxymethyl)-3-(4-decylbenzamido)-1,1-dimethylpyrrolidinium 2,2,2-trifluoroacetate] |  |  |  |  |  |  |  |  | 0.8129 | 0.1249 | 0.08112 | 0.2089 | 0.06486 | 0.2198 | 0.4436 | 
9 | C[N+]1(C)CCC(CC(=O)O)(NC(=O)c2ccc(C#Cc3ccccc3)o2)CC1 [Example S6, 4-(Carboxymethyl)-1,1-dimethyl-4-(5-(phenylethynyl)furan-2-carboxamido)-piperidinium 2,2,2-trifluoroacetate] |  |  |  |  |  |  |  |  | 0.1074 | 0.05672 | 0.1543 | 0.05805 | 0.03714 | 0.2084 | 0.03591 | 
10 | CCCCCc1ccc(S(=O)(=O)NC2(CC(=O)O)CC[N+](C)(C)C2)cc1 (stereo not drawn) [Example S20, 3-(carboxymethyl)-1,1-dimethyl-3-(4-pentylphenylsulfonamido)-pyrrolidinium 2,2,2-trifluoroacetate] |  |  |  |  |  |  |  |  | 0.2773 | 0.1176 | 0.3647 | 0.01263 | 0.2269 | 0.07399 |  | 
11 | O=C(O)CC1(NC(=O)c2ccc(C#Cc3ccccc3)o2)CNC1 [Example S26, 3-(carboxymethyl)-3-(5-(phenylethynyl)furan-2-carboxamido)-azetidinium 2,2,2-trifluoroacetate] |  |  |  |  |  |  |  |  | 0.1437 |  | 0.1892 | 0.0551 | 0.1403 | 0.07378 |  | 
12 | CCCCCc1ccc(S(=O)(=O)NC2(CC(=O)O)CCN(C)CC2)cc1 [Example S3, 4-(carboxymethyl)-1-methyl-4-(4-pentylphenylsulfonamido)piperidinium 2,2,2-trifluoroacetate] |  |  |  |  |  |  |  |  | 0.4638 |  | 0.03424 | 0.03948 | 0.007318 |  |  | 
